# From patent US12208130B2, “Treatment of women affected with polycystic ovary syndrome” (INSTITUT NATIONAL DE LA SANTE ET DE LA RECHERCHE MEDICALE …, priority 2017, dated 2025)
# Where a SMILES comes first, the peptide text is derived from it. [ ]: non-standard residue; d: D form. dPhe(4-Cl) = N[C@H](Cc1ccc(Cl)cc1)C(=O)O; d2Nal = N[C@H](Cc1ccc2ccccc2c1)C(=O)O; dCit = NC(=O)NCCC[C@@H](N)C(=O)O; d3Pal = N[C@H](Cc1cccnc1)C(=O)O
# B1: proAMH: AMH proprotein (Origene Technologies, Cat # TP308397), injected prenatally 0.12 mg/Kg/d (protein, UniProt P03971 25-560, looked up)
# pro-form: LRAEEPAVGTSGLIFREDLDWPPGSPQEPLCLVALGGDSNGSSSPLRVVGALSAYEQAFLGAVQRARWGPRDLATFGVCNTGDRQAALPSLRRLGAWLRDPGGQRLVVLHLEEVTWEPTPSLRFQEPPPGGAGPPELALLVLYPGPGPEVTVTRAGLPGAQSLCPSRDTRYLVLAVDRPAGAWRGSGLALTLQPRGEDSRLSTARLQALLFGDDHRCFTRMTPALLLLPRSEPAPLPAHGQLDTVPFPPPRPSAELEESPPSADPFLETLTRLVRALRVPPARASAPRLALDPDALAGFPQGLVNLSDPAALERLLDGEEPLLLLLRPTAATTGDPAPLHDPTSAPWATALARRVAAELQAAAAELRSLPGLPPATAPLLARLLALCPGGPGGLGDPLRALLLLKALQGLRVEWRGRDPRGPGRAQRSAGATAADGPCALRELSVDLRAERSVLIPETYQANNCQGVCGWPQSDRNPRYGNHVVLLLKMQVRGAALARPPCCVPTAYAGKLLISLSEERISAHHVPNMVATECGCR
# modifications: pro-form
# notes: AMH proprotein (Origene Technologies, Cat # TP308397), injected prenatally 0.12 mg/Kg/d
# Key:
# [1] = test system: C57BL6/J (B6) dams and their female offspring; assay: Plasma testosterone, LH and LH pulsatility in adult diestrus female offspring; assay type: in vivo, mouse
# Procedure: FIGS. 3A-3J-4. Prenatal AMH treatment leads to hyperandrogenism and elevation in LH secretion/pulsatility. (FIG. 3A) Anogenital distance (AGD) was measured over post-natal days (P) 30, 35, 40, 50, and 60 in adult female control (n=6-14), PAMH (n=11-19), PAMH+GnRH antag (n=10), and GnRH antag (n=4) mice. […] One-way ANOVA and Tukey's multiple comparison post hoc test, F(19-183)=130.1, ***P<0.0001 among treatment groups and ages (P30, F(3, 43)=84.48, *P<0.05, ***P<0.0001; P35, F(3, 43)=116.9, *P<0.05, ***P<0.0001; P40, F(3, 43)=207.5, *P<0.05, ***P<0.0001; P50, F(3,27)=72.69, ***P<0.0001; P60, F(3,27)=110.5, ***P<0.0001). Bars from left to right in each group: Control, PAMH, PAMH+GnRH antag, GnRH antag. (FIG. 3B) Plasma testosterone was measured in adult females (P60) in diestrus. […] One-way ANOVA and Tukey's multiple comparison post hoc test, F(2,12)=28.67, ***P<0.0001. Bars from left to right: Control, PAMH, PAMH+GnRH antag. (FIG. 3C) Plasma LH was measured in adult females (P60) in diestrus. […] One-way ANOVA and Tukey's multiple comparison post hoc test, F(2,24)=257.3, *P<0.05, ***P<0.0001. Bars from left to right: Control, PAMH,
# PAMH+GnRH antag. (FIG. 3D) Schematic representation of tail-tip blood sampling in adult diestrus female mice (3-4 months old). (FIG. 3E) Tail blood was collected every 10 min for 2 h and LH measured from 10 a.m-12 p.m in adult (P60) diestrus females (Control, n=8; PAMH, n=10; PAMH+GnRH antag, n=9; One-way ANOVA and Tukey's multiple comparison post hoc test, F(2,24)=57.06, *P<0.05, ***P<0.0001). Bars from left to right: Control, PAMH, PAMH+GnRH antag. (FIGS. 2F-1, 2F-2, 2F-3) Representative graphs for LH pulsatility over 2-hr in one female adult (P60) mouse of each treatment. Asterisks in (FIG. 3F) indicate the number of LH pulses/2-hr. (FIG. 3G) Mean circulating testosterone and LH levels were analyzed in pregnant PBS-treated (n=4) and AMH-treated (n=4) dams at embryonic day (E) 19.5 of gestation. […] (FIG. 3H) Relative mRNA expression of placental Cyp191a (aromatase) in control (n=4) and AMH (n=4)-treated pregnant animals at E19.5. Cyp191a expression in the placenta is higher in AMH-treated pregnant dams as compared to control-treated pregnant dams (Unpaired Student's t-test, t(6)=5.414, **P<0.005). Values are expressed as relative to the mean of each treatment. All values are expressed as mean±s.e.m. (FIGS. 3I-1, 3I-2, 3I-3, 3I-4) Dams were injected from E16.5 to E18.5 with either PBS (vehicle, n=9-11), AMH (n=8-10), AMH+GnRH antag (n=5) and trunk blood was collected at E19.5 for hormonal measurements by ELISA. Data were combined from at least two independent experiments. In FIGS. 3I-1, 3I-2, 3I-3, 3I-4: left bar: vehicle; middle bar: AMH; right bar: AMH+GnRH antagonist. […]
# pregnant mice = assay: Dam body weight and fat mass, aborted embryos, litter size, pup weight at birth; assay type: in vivo, mouse
# Procedure: Dams were injected from E16.5 to E18.5 with either PBS (vehicle, n=8-11), AMH (n=10), AMH+GnRH antag (n=8-10). Body weight (grams: g); (FIG. 9A), subcutaneous fat mass (FIG. 9B) and perigonadal fat mass (FIG. 9C) was measured in dams at gestational day 19.5. (FIG. 9D) Dams were injected from E16.5 to E18.5 with either PBS (vehicle, n=9), AMH (n=9), AMH+GnRH antag (n=9). Dams were sacrificed one day later and the number of aborted embryos per litter was calculated. (FIGS. 9E, 9F) Dams were injected from E16.5 to E18.5 with either PBS (vehicle, n=3), AMH (n=3), AMH+GnRH antag (n=3). The number of pups per litter (FIG. 9E) and the weight of the pups at birth (FIG. 9F) was calculated for each treatment group (vehicle, n=12 pups; AMH, n=11 pups; AMH+GnRH antag, n=12 pups). Values are represented as the mean±s.e.m. […] Data were combined from three independent experiments. FIGS. 9A to 9F: left bar: vehicle; middle bar: AMH; right bar: AMH+GnRH antagonist.
# [2] = dams i.p. 0.12 mg/Kg/d E16.5-E18.5, adult female offspring in diestrus vs control
Molecule,PCOS-like neuroendocrine traits in the offspring ([1]; prenatal co-treatment of AMH with the GnRH antagonist),body weights of pups at birth (pregnant mice; dams i.p. AMH+GnRH antag E16.5-E18.5),"body weight, subcutaneous fat mass or perigonadal fat mass of dams (pregnant mice; dams injected 3 days with AMH+GnRH antag, E19.5)","plasma LH [1, 2]","plasma testosterone [1, 2]","LH pulse frequency / pulsatility ([1]; dams i.p. 0.12 mg/Kg/d E16.5-E18.5, adult female offspring in diestrus, tail blood every 10 min for 2 h)"
"CC(=O)N[C@H](Cc1ccc2ccccc2c1)C(=O)N[C@H](Cc1ccc(Cl)cc1)C(=O)N[C@H](Cc1cccnc1)C(=O)N[C@@H](CO)C(=O)N[C@@H](Cc1ccc(O)cc1)C(=O)N[C@H](CCCNC(N)=O)C(=O)N[C@@H](CC(C)C)C(=O)N[C@@H](CCCNC(=N)N)C(=O)N1CCC[C@H]1C(=O)N[C@H](C)C(N)=O [Cetrorelix acetate, Ac-D-2Nal-D-Phe(4-Cl)-D-3Pal-Ser-Tyr-D-Cit-Leu-Arg-Pro-D-Ala-NH2] (Ac-[d2Nal][dPhe(4-Cl)][d3Pal]SY[dCit]LRP[dA]-NH2)",prevented the appearance,did not observe any changes,did not find any changes,,,
B1,,,,increased,increased,constitutively high LH pulsatility
